Reference: EP0527720B1, “THERAPEUTIC AGENTS” (The Boots Company PLC, priority 1989, dated 1990)

System: heart failure patients
Experiment: Earlier clinical studies of flosequinan 150 mg alone in heart failure patients
Type: in vivo, human
Settings: heart failure patients receiving 150 mg doses of flosequinan
Source text: An increase of heart rate is generally an undesirable effect in the treatment of heart failure since additional stress is placed on the failing heart. Furthermore, patients receiving such therapy may report adverse drug events associated with the increase in heart rate such as tachycardia and palpitations. These undesirable side effects of vasodilatory drug therapy effectively limit the maximum dose of the drug which can be safely administered.
This was particularly remarkable since no increase in heart rate (HR) was apparent. This implies that the increase in cardiac output (CO) evident after coadministration of captopril and flosequinan is due to an increase in stroke volume and not due, at least in part, to an increase in heart rate (HR) as expected.

Compound: Cn1cc([S+](C)[O-])c(=O)c2ccc(F)cc21 (stereo not shown) [flosequinan, 7-fluoro-1-methyl-3-methylsulphinyl-4-quinolone]
- heart rate: an increase of heart rate occurs
